According to patent US9682985B2, “(Indazol-4-yl) hexahydropyrrolopyrrolones and methods of use” (AbbVie Inc., priority 2015, dated 2017):
pIC50: −log10 of the molar value.

Tests used:
[1] = system: MIA-induced osteoarthritic pain in rats; test: Osteoarthritic (OA) pain induced by sodium monoiodoacetate (MIA), hind limb grip force; type: in vivo; conditions: rat MIA-OA, 20 days after MIA
Method: Osteoarthritic (OA) Pain Induced by Sodium Monoiodoacetate (MIA)
Pain behavior was assessed by measurement of hind limb grip force (GF) in adult osteoarthritic rats. Male Sprague Dawley rats, obtained from Charles River Laboratories, (Wilmington, Mass.), weighing 150-175 g, were injected in the unilateral knee join with a single intra-articular injection of sodium monoiodoacetate (MIA, 3 mg/rat). All rats were tested at 20 days following MIA injection. A behavioral measure of activity-induced pain was carried out. Measurements of the peak hind limb grip force were conducted by recording the maximum compressive force (CFmax), in grams of force, exerted on a hind limb strain gauge setup, in a commercially available grip force measurement system (Columbus Instruments, Columbus, Ohio).
During testing, each rat was gently restrained by grasping it around its rib cage and then allowed to grasp the wire mesh frame attached to the strain gauge. The experimenter then moved the animal in a rostral-to-caudal direction until the grip was broken. Each rat was sequentially tested twice at an approximately 2-3 minute interval to obtain a raw mean grip force (CFmax). This raw mean grip force data was in turn converted to a maximum hindlimb cumulative compressive force (CFmax), as the grams of force/kg of body weight, for each animal.
For evaluating the compound effects, the hind limb grip force was conducted 20 days following the intra-articular injection of MIA. A group of age-matched naïve (not injected with MIA) animals was added as a comparator to the drug-dosed groups. The vehicle control response for each group of MIA-treated animals was defined as the 0% response (0% effect), whereas the naïve control group was defined as the normal response and as 100% effect. The % effect for each dose group was expressed as % return of response to normalcy, compared to the naïve group. A percent maximal possible effect (% MPE) of testing compound was calculated according to the formula: (Treatment CFmax Vehicle CFmax)/Vehicle CFmax]×100). Higher % effect numbers indicate increased relief from the pain in the model, with 100% indicating a return to the level of response seen in normal (non-osteoarthritic) animals. All experiments evaluating drug effects in this model were conducted in a randomized blinded fashion.
The animals were housed in Association for Assessment and Accreditation of Laboratory Animal Care (AAALAC) approved facilities at AbbVie Inc. in a temperature-regulated environment under a controlled 12-hour light-dark cycle, with lights on at 6:00 a.m. Food and water were available ad libitum at all times except during testing. All testing was done following procedures outlined in protocols approved by AbbVie Inc.'s Institutional Animal Care and Use Committee.

[2] = target: T1, recombinant human Nav1.8 (Homo sapiens, UniProt Q9Y5Y9); test: FRET-based membrane potential assay, Nav1.8; type: cell-based; conditions: HEK293 cells expressing recombinant human Nav1.8; veratridine + scorpion venom depolarization
T1 construct: host or cells: HEK293

[3] = target: T2, hERG channel (Kv11.1) (Homo sapiens, UniProt Q12809); test: hERG QPatch screening protocol (hERG current block); type: cell-based; conditions: HEK-293 cells stably transfected with hERG; tail current; room temperature
T2 construct: W. January (Wisconsin Alumni Research Foundation); host or cells: HEK-293
Method: hERG QPatch Screening Protocol
Solutions and Compound Plates:
The bath solution contained (in mM): 140 NaCl, 5 KCl, 1 MgCl2, 2 CaCl2, 5 glucose, 20 HEPES, pH=7.4. The internal solution contained (in mM): 125 K-aspartate, 20 KCl, 10 EGTA, 5 MgATP, 1 MgCl2, 5 HEPES, pH=7.3.
Compound plates were prepared with an acoustic liquid handler (Echo® 550, Labcyte), using 384-well source plates and 96-well destination plates. Compounds were delivered to the destination plates as 300 nL spots in half-log increments (1, 3, 10 and 30 mM), dissolved in dimethyl sulfoxide. Plates were solvated with bath solution (300 μL) to final concentrations (1, 3, 10 and 30 μM; 0.1% dimethyl sulfoxide) and added to the QPatch workstation.
Cells and Cell Preparation:
Human embryonic kidney (HEK-293) cells, stably transfected with the hERG channel, were obtained from Dr. C. W. January (Wisconsin Alumni Research Foundation). Cells were initially maintained at 37° C. (5% CO2 atmosphere) in MEM supplemented media. Cells were cryo-preserved in 10% dimethyl sulfoxide, 90% fetal bovine serum at 10 M cells/mL. For electrophysiological studies, cells were thawed, resuspended in media at 1.0-1.5 M cells/mL and placed on the QPatch workstation.
QPatch Electrophysiology Workstation and Experimental Protocol:
Currents were recorded using QPatch HT (Sophion), an automated planar patch-clamp system. The QPatch uses forty-eight amplifiers and a 48-chamber QPlate positioned directly on top of the headstage. To obtain high resistant seals, cells are added to each chamber and allowed to settle for 10 seconds. Negative pressure is then applied to promote cell delivery to the patch chip openings on the chamber bottom. After formation of GΩ seals, negative pressure ramps are applied to obtain intracellular access. Access resistance was initially optimized by additional pressure ramps to assure the intracellular access was adequate for voltage clamp experiments (targeted access resistance <10 MΩ). Whole-cell compensation and series resistance compensation were used at 60% (both predicted and corrected). Experiments using QPatch were conducted at room temperature.
A single application of each concentration was applied to cells. During a five-minute wash-in period, a four-second depolarizing pulse to +20 mV, followed by a five-second repolarizing pulse to −50 mV was applied once every 15 seconds from a holding potential of −80 mV. Cells were exposed to four ascending concentrations of drug in half-log intervals.
Evaluation of hERG Current Block:
hERG tail current was measured as the difference in amplitude between a […] and the end of a five-second test pulse to −50 mV, preceded by a four-second pulse to +20 mV. The hERG IC50 values for compounds were determined from tail current analysis. The IC50 was calculated with a logistic fitting routine using the following equation: y=[(A1−A2)/(1+(x/IC50))^p]A2, where A1=initial×value, A2=final×value and p=power.

[4] = target: T3, recombinant human Nav1.7 (Homo sapiens, UniProt Q15858); test: FRET-based membrane potential assay, Nav1.7; type: cell-based; conditions: HEK293 cells expressing recombinant human Nav1.7; veratridine + scorpion venom depolarization
T3 construct: expressed in transfected cells; host or cells: HEK293
T3 sequence (Q15858 whole entry): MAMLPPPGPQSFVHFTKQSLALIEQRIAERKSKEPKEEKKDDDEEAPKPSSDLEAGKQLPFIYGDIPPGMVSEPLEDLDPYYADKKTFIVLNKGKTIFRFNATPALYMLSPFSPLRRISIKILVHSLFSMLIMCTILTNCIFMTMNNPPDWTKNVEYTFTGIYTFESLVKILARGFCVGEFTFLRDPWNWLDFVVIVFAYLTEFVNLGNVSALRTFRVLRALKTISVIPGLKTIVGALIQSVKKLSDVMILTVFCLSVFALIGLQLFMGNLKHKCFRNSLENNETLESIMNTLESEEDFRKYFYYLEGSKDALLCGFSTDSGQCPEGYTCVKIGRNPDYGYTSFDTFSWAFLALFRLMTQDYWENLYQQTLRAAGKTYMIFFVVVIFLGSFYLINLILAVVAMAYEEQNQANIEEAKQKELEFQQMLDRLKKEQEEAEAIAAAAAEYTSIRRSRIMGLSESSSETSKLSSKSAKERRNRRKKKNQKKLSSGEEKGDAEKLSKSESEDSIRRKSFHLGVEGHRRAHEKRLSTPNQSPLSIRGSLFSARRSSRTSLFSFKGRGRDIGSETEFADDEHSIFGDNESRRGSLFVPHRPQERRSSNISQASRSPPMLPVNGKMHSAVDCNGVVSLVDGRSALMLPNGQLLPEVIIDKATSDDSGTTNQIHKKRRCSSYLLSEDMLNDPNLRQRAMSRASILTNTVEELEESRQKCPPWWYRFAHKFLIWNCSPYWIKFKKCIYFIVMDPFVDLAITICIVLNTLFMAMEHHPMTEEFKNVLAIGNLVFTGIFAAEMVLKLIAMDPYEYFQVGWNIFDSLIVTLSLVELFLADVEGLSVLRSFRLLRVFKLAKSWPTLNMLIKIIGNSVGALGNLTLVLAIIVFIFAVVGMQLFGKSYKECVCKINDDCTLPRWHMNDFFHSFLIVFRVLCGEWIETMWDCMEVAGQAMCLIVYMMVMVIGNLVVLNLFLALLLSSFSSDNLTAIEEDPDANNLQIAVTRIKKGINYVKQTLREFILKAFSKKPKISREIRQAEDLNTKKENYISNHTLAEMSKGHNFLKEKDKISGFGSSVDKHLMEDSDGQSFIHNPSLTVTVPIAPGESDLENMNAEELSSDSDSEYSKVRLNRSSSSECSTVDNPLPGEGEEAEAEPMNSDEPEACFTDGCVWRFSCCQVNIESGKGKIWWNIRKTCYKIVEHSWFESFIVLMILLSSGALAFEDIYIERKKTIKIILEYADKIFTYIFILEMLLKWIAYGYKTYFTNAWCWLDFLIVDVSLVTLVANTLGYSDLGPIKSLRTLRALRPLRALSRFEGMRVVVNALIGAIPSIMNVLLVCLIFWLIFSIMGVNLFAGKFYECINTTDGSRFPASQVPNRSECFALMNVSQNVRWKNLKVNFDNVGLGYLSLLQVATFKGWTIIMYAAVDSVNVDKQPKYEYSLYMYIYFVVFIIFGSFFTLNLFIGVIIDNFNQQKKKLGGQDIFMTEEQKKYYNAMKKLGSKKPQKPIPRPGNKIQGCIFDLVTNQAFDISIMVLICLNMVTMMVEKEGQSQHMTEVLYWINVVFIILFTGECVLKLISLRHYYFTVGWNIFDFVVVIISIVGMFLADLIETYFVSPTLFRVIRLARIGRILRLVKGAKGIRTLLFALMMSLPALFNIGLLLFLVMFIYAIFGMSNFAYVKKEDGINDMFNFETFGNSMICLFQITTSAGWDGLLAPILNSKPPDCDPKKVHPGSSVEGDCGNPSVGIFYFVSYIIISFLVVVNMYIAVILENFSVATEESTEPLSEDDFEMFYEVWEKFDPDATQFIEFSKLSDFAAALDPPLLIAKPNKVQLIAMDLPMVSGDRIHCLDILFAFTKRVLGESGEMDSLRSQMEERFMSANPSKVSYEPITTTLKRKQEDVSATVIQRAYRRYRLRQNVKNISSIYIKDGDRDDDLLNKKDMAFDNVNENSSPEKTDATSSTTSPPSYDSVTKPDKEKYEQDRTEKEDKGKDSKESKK

T1 sequence (Q9Y5Y9 whole entry): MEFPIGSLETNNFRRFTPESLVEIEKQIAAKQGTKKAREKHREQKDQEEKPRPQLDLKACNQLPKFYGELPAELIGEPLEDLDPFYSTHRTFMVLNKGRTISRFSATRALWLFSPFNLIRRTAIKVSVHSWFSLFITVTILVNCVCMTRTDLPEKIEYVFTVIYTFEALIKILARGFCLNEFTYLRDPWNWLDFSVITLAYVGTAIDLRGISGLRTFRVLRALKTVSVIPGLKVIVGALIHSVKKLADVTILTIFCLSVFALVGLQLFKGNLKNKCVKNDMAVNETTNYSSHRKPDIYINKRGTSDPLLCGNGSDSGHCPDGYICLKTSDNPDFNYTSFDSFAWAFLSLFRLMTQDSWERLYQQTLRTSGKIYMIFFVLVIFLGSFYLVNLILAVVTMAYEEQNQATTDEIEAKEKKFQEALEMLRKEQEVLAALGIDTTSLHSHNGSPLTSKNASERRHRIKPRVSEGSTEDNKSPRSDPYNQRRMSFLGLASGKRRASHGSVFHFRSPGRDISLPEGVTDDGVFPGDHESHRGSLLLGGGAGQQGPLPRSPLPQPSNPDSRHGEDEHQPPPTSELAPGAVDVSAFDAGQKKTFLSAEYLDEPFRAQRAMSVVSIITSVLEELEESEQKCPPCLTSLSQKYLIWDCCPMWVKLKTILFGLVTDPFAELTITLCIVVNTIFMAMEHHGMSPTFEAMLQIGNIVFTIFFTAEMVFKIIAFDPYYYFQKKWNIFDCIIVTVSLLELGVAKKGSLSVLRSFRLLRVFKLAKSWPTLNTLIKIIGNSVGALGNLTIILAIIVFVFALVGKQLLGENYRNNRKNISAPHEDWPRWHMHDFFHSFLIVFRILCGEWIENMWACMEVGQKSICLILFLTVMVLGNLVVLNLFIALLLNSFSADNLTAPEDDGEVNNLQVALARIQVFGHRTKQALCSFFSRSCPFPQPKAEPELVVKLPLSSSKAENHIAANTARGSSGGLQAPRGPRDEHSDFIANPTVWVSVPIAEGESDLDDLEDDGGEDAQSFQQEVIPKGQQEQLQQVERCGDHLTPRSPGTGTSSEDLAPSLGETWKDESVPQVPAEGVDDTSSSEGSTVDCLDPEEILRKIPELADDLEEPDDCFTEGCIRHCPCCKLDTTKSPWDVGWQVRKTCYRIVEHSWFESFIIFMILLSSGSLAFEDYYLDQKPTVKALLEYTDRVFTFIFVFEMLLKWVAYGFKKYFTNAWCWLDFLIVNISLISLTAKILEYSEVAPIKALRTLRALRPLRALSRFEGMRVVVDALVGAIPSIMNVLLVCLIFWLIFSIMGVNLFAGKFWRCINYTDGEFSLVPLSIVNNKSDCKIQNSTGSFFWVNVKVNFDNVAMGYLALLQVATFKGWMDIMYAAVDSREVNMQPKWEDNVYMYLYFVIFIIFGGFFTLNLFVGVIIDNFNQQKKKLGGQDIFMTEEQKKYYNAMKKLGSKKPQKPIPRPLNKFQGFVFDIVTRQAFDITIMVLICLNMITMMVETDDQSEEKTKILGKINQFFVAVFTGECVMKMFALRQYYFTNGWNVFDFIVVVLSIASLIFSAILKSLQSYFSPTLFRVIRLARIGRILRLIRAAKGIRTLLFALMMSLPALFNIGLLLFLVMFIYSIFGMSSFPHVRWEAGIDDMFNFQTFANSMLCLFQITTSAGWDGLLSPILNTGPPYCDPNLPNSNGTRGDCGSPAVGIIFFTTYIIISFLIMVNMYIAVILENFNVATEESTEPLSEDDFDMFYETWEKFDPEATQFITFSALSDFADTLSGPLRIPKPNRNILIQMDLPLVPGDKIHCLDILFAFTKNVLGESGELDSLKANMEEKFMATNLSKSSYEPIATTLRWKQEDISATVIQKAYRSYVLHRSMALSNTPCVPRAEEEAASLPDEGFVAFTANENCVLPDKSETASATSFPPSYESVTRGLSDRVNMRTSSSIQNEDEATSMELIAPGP
T2 sequence (Q12809 whole entry): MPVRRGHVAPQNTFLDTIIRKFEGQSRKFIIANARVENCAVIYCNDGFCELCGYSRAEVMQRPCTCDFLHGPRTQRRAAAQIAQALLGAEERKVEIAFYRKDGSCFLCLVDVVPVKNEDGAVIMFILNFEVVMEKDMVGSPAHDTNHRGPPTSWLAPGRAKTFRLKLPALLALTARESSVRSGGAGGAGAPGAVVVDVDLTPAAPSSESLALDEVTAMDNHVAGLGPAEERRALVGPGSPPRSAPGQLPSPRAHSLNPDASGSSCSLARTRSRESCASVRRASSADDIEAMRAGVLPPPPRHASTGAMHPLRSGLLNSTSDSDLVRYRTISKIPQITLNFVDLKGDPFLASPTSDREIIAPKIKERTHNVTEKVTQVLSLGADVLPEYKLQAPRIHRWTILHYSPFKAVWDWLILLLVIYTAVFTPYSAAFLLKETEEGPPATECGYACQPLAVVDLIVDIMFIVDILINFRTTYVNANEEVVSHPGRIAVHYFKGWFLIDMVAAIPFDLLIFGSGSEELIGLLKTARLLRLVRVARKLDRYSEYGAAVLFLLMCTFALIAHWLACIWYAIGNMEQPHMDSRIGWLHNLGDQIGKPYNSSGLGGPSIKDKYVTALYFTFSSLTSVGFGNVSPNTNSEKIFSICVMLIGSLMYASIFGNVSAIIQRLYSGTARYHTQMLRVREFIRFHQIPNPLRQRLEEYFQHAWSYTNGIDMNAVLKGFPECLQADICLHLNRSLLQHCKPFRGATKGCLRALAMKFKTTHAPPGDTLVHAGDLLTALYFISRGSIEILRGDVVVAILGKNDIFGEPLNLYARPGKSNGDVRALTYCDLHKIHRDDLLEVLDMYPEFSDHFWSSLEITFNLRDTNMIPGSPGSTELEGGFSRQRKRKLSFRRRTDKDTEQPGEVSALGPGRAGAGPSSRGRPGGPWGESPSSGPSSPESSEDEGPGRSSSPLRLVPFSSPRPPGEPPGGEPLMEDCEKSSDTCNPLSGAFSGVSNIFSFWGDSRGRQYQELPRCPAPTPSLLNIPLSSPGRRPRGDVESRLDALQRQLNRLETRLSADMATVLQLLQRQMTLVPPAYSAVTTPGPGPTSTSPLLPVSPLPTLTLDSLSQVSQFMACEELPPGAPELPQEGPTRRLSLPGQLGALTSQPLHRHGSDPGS

SMILES	OA MPE ([1]; OA dose 10 mg/kg) [%]	pIC50 [2]	pIC50 [3]	pIC50 [4]	OA MPE ([1]; OA dose 30 mg/kg) [%]
CC(C)S(=O)(=O)N1C[C@@H]2CN(c3cccc4c3cnn4-c3ccccc3F)C(=O)[C@@H]2C1 [Example 24, (3aS,6aS)-2-[1-(2-fluorophenyl)-1H-indazol-4-yl]-5-(isopropylsulfonyl)hexahydropyrrolo[3,4-c]pyrrol-1 (2H)-one]	66	6.23	4.77	5.70	–
O=C(C1CCOC1)N1C[C@@H]2CN(c3cccc4c3cnn4-c3ccccc3F)C(=O)[C@@H]2C1 (stereo partly drawn) [Example 32, (3aR,6aS)-2-[1-(2-fluorophenyl)-1H-indazol-4-yl]-5-(tetrahydrofuran-3-ylcarbonyl)hexahydropyrrolo[3,4-c]pyrrol-1(2H)-one]	9	–	5.13	5.77	–
C[C@@H](O)CC(=O)N1CC[C@@H]2CN(c3cccc4c3cnn4-c3ccccc3F)C(=O)[C@@H]21 (mixture of isomers) [Example 7, (3aR*,6aR*)-5-[1-(2-fluorophenyl)-1H-indazol-4-yl]-1-[(3R)-3-hydroxybutanoyl]hexahydropyrrolo[3,4-b]pyrrol-6(1H)-one]	–	5.51	< 4.52	5.50	–
NC(=O)CC(=O)N1C[C@H]2CN(c3cccc4c3cnn4-c3ccccc3F)C(=O)[C@H]2C1 [Example 44, 3-[(3aR,6aS)-5-[1-(2-fluorophenyl)-1H-indazol-4-yl]-4-oxohexahydropyrrolo[3,4-c]pyrrol-2(1H)-yl]-3-oxopropanamide]	–	< 4.70	–	< 4.70	–
CC(C)(O)C(=O)N1CC[C@H]2CN(c3cccc4c3cnn4-c3ccccc3F)C(=O)[C@H]21 [Example 49, (3aS,6aS)-5-[1-(2-fluorophenyl)-1H-indazol-4-yl]-1-(2-hydroxy-2-methylpropanoyl)hexahydropyrrolo[3,4-b]pyrrol-6(1H)-one]	–	5.39	–	6.40	–
O=C1[C@H]2[C@H](CCN2C(=O)[C@@H]2CCOC2)CN1c1cccc2c1cnn2-c1ccccc1F (mixture of isomers) [Example 3, (3aR*,6aR*)-5-[1-(2-fluorophenyl)-1H-indazol-4-yl]-1-[(3R)-tetrahydrofuran-3-ylcarbonyl]hexahydropyrrolo[3,4-b]pyrrol-6(1H)-one]	–	5.27	< 4.52	5.71	–
CC(C)(O)CC(=O)N1CC[C@H]2CN(c3cccc4c3cnn4-c3ccccc3F)C(=O)[C@H]21 (single isomer, unassigned) [Example 2]	–	5.62	< 4.52	–	62
O=C(CCO)N1C[C@H]2CN(c3cccc4c3cnn4-c3ccccc3F)C(=O)[C@H]2C1 [Example 45, (3aS,6aR)-2-[1-(2-fluorophenyl)-1H-indazol-4-yl]-5-(3-hydroxypropanoyl)hexahydropyrrolo[3,4-c]pyrrol-1(2H)-one]	–	< 4.70	–	< 4.70	–
O=C(c1coc(CN2CCCC2)n1)N1C[C@@H]2CN(c3cccc4c3cnn4-c3ccccc3F)C(=O)[C@@H]2C1 [Example 31, (3aR,6aS)-2-[1-(2-fluorophenyl)-1H-indazol-4-yl]-5-{[2-(pyrrolidin-1-ylmethyl)-1,3-oxazol-4-yl]carbonyl}hexahydropyrrolo[3,4-c]pyrrol-1(2H)-one]	–	–	4.87	6.33	–
CC(C)CS(=O)(=O)N1C[C@@H]2CN(c3cccc4c3cnn4-c3ccccc3F)C(=O)[C@@H]2C1 [Example 21, (3aS,6aS)-2-[1-(2-fluorophenyl)-1H-indazol-4-yl]-5-(isobutylsulfonyl)hexahydropyrrolo[3,4-c]pyrrol-1(2H)-one]	–	–	4.85	6.04	–
CC(C)(O)CC(=O)N1CC[C@@H]2CN(c3cccc4c3cnn4-c3ccccc3F)C(=O)[C@@H]21 (single isomer, unassigned) [Example 1]	–	5.55	< 4.52	–	70
O=C1[C@@H]2CN(S(=O)(=O)c3ccccc3)C[C@@H]2CN1c1cccc2c1cnn2-c1ccccc1F [Example 29, (3aS,6aS)-2-[1-(2-fluorophenyl)-1H-indazol-4-yl]-5-(phenylsulfonyl)hexahydropyrrolo[3,4-c]pyrrol-1(2H)-one]	–	–	4.58	5.54	–
CC(=O)N1C[C@H]2CN(c3cccc4c3cnn4-c3ccccc3F)C(=O)[C@H]2C1 [Example 46, (3aS,6aR)-5-acetyl-2-[1-(2-fluorophenyl)-1H-indazol-4-yl]hexahydropyrrolo[3,4-c]pyrrol-1(2H)-one]	–	–	< 4.52	5.45	–
CC(=O)N1CC[C@@H]2CN(c3cccc4c3cnn4-c3ccccc3F)C(=O)[C@@H]21 (relative stereo) [Example 6, rel-(3aR,6aR)-1-acetyl-5-[1-(2-fluorophenyl)-1H-indazol-4-yl]hexahydropyrrolo[3,4-b]pyrrol-6(1H)-one]	–	4.83	–	4.88	–
